In patent US20020013300A1, “Methods for improving size and appearance of a wound” (Avocet Polymer Technologies, Inc., priority 2000, published 2002):

Assays:
Assay type in all cases: in vivo, human patient
hypertrophic scar [1] = assay: Example 2, Patient three: treatment of a tender hypertrophic facial scar; details: 7 weeks
From the text: The patient's chief complaint was irritation with daily grooming and itching from scars located on the face. The patient underwent a medical history and physical examination. […] Clinical progress was followed using photographic and ultrasound imaging as well as a patient self-report. […] Color changes were documented by photographs. Ultrasound images documented the scar size change.

hypertrophic scar [2] = assay: Example 3, Patient 25: treatment of an irritated hypertrophic forearm scar
Method: The patient's chief complaint was an irritated scar of the forearm for more than two years. The patient underwent a medical history and physical examination. On examination, a raised irregularly contoured errythematous hypertrophic scar was observed. Materials and Methods: After review of clinical options, the patient was prescribed nabumetone for 4 weeks. […] The combination of nabumetone and hydrogel was used for 15-18 hours each day for a period of 8 weeks. Clinical progress was followed using photographic imaging as well as patient self-report.

post-operative scar = assay: Example 4, Patient two: treatment of a raised post-operative leg scar
Method: The patient's chief complaint was difficulty sleeping or resting because of a post-operative orthopoedic right leg scar that was irritated and raised. The patient underwent a medical history and physical examination. Notable medication use was a 325 mg tablet of acetylsalicylic acid orally administered to prevent thrombo-embolic post-operative complications. On examination, a 15 cm raised erythematous post-operative scar of 15 cm length and approximately 3 mm width was noted, with exquisite sensitivity to examination and evidence of excoriation. At the time of exam, the patient denied itching. […] To avoid the use of adhesives, an ace wrap bandage was used to hold the gel—salicylic acid combination in place. Gel plus salicylic acid co-administration was monitored by a daily patient diary. Photographs and patient self report were used to assess treatment results. Itching complaints were followed using a 10 point itching scale. Pre-treatment itching scale was entered as 0, reflecting onset of aspirin use prior therapy. RESULTS: Compliance with treatment regimen was documented daily. […] Itching symptoms were reported at 0.

[3] = test system: post-operative caesarean section scar; assay: Example 5, Patient one: treatment of an itchy caesarean section scar
From the text: The patient's chief complaint was a burning itchy sensation in a closed post-operative caesarean section scar. The patient underwent a medical history and physical examination. On examination, an 18 cm irritated lower abdominal vertical healed incision was noted, with evidence of excoriation. […] To avoid the use of adhesives, a control top stretch panty was used to hold the gel—salicylic acid combination in place. Gel plus salicylic acid co-administration was monitored by a daily patient diary. Photographs and patient self report were followed to assess treatment results. Itching complaints were followed using a 10 point itching scale. Pre-treatment itching scale was entered as 6, with the comment that itching bothered the patient “severely, badly.” RESULTS: Compliance with treatment regimen was documented daily. […] On examination, the scar contours appeared to have become more regular and scar color faded.

[4] = nabumetone, then nabumetone + hydrogel 8 weeks
[5] = 2% salicylic acid under hydrogel, 12 weeks
[6] = 2% salicylic acid under hydrogel

## COc1ccc2cc(CCC(C)=O)ccc2c1 [nabumetone, 4-(6-methoxy-2-naphthalenyl)-2-butanone]
Hypertrophic scar [1]; nabumetone + hydrogel
  patient self-report: improved comfort
  redness and tenderness on exam: less redness and tenderness
  scar color (photographs): revert to a color tone more closely matching adjacent skin
Hypertrophic scar [1]; oral nabumetone 250-500 mg daily co-administered with AVOGEL hydrogel sheeting 15-18 h/day
  reduction in scar size (examination, ultrasound): 50%
Hypertrophic scar [2]; [4]
  irregular contours: faded
  patient self-report: improved comfort
  scar color on examination: reverted in color to skin tones closely matching adjacent skin
Hypertrophic scar [2]; oral nabumetone 250 mg daily 4 weeks, then with AVOGEL hydrogel sheeting 15-18 h/day for 8 weeks
  scar height on examination: became flatter
Hypertrophic scar [2]; treatment day 60
  scar visibility on photographic documentation: not observable

## O=C(O)c1ccccc1O [salicylic acid]
post-operative scar; 2% salicylic acid topically under AVOGEL hydrogel 15-18 h/day, 12 weeks, patient also on oral acetylsalicylic acid 325 mg
  shortened measure of the scar, scar contracture (photographs): 25%
post-operative scar; [5]
  evidence of itching or irritation on examination: No evidence of itching or irritation
  patient report: improved sleep with reduction in scar irritation
  scar color on examination: lighter than in pre-treatment
  scar contours on examination: flattened
post-operative scar; 10 point scale, pre-treatment entered as 0 (aspirin use prior to therapy)
  itching symptoms (itching scale): 0
[3]; 2% salicylic acid topically under AVOGEL hydrogel 15-18 h/day, 12 weeks
  redness and local irritation at scar site (photographs): reduced redness and local irritation
[3]; [6]
  evidence of itching or irritation on examination: No evidence of itching or irritation
  scar color on examination: faded
  scar contours on examination: more regular
[3]; 10 point scale, 4th week of treatment, pre-treatment 6
  itching symptoms (itching scale): 3
[3]; end of treatment after 20 weeks
  scar irritation and pruritis: reduced to infrequent
